Assay results as given in patent US10028948B2, “Chromone derivative as a dopamine D3 receptor antagonist for its use for the treatment of autism spectrum disorder” (PIERRE FABRE MEDICAMENT, priority 2013, dated 2018).
Structures can show the parent of a compound that is named as a salt.

Legend:
[1] = target: T1, human recombinant dopamine D3 receptor (Homo sapiens, UniProt P35462); assay: Inhibition of [3H]spiperone binding, human recombinant dopamine D3 receptor; conditions: cells expressing human recombinant D3 receptor, read-out: inhibition constant (Ki), dopamine D3 receptor
T1 construct: expressed in transfected cells
Experimental: (§1) The N-(3-{4-[4-(8-oxo-8H-[1,3]dioxolo[4,5-g]chromen-7-yl)-butyl]-piperazin-1-yl}-phenyl)-methanesulfonamide hydrochloride was evaluated in vitro as a dopamine D3 receptor ligand and modulator of the activity of that receptor in accordance with the invention in cells expressing human recombinant dopamine D3 receptor or human recombinant dopamine D2 receptor. The inhibition constant (Ki) was measured by inhibition of the binding of [^3H] spiperone as described by Cussac et al., in Naunyn-Schmiedeberg's Arch. Pharmacol. 2000, vol 361, p 569-572.

[2] = target: T2, human recombinant dopamine D2 receptor (Homo sapiens, UniProt P14416); assay: Inhibition of [3H]spiperone binding, human recombinant dopamine D2 receptor; conditions: human recombinant D2 vs D3 receptor
T2 construct: expressed in transfected cells
Experimental: as §1

[3] = test system: social interaction behavior of offspring of sodium valproate- or saline-treated female rats; assay: Social interaction in the valproic acid rat model of autism; type: in vivo, Sprague-Dawley rats; conditions: acute administration, scored 10 min, n=10
Experimental: The N-(3-{4-[4-(8-oxo-8H-[1,3]dioxolo[4,5-g]chromen-7-yl)-butyl]-piperazin-1-yl}-phenyl)-methanesulfonamide hydrochloride was tested on social interaction of offspring of female rats which had been administered valproic acid as a sodium salt. The experimental settings of the valproic acid rat model of autism were adapted from published data (Dendrinos et al., Front. Integr. Neurosci. 2011, vol 5, art 68; Markram et al., Neuropsychopharm. 2007, vol 33, p 901-912; Schneider et al., Neuropsychopharm. 2005, vol 30, p 80-89).
Pregnant (embryonic day 8 max) female Sprague-Dawley rats [OFA (SD) Charles River Lyon, France] were quarantined for 4 days. Animals were group housed (2 per cage) in a full bottom cage (ML-H Cage, 370×235×180 mm, L×W×H; floor surface 870 cm^2) in an environmentally controlled room (temperature 21±1° C.; relative humidity 55±5%) under a 12-h light/dark cycle (lights on at 07:00 AM) with food (A04, Safe, Augy, France) and filtered water (0.2 μm pore diameter) freely available. Until weaning of offspring, animals were changed only once per week in order to disturb them as little as possible. Environmental enrichment (nesting material) was provided.
On embryonic days 12 and 13 (E12-E13), females were weighed and received three intraperitoneal injections of 2.4 ml/kg of sodium valproate (NaVPA, 200 mg/kg). Sodium valproate was dissolved in 0.9% saline for a concentration of 83.3 mg/ml, pH 7.3. Control dams received three intraperitoneal injections of saline (2.4 ml/kg). After the third injection, females were individually housed in ML-H type cages and allowed to raise their litters. Offspring were weaned between 21 to 23 days postnatally.
One sodium valproate- or saline-exposed rat and an unfamiliar naïve rat were placed in opposite corners of an arena (black arena 70 cm×70 cm×30 cm, L×I×H). Individual behavior related to social interaction such as following grooming, sniffing or biting the other rat as well as climbing over the other rat, initiated by the tested rat toward the unfamiliar rat were scored for a period of 10 min. […]

T1 sequence (P35462 whole entry): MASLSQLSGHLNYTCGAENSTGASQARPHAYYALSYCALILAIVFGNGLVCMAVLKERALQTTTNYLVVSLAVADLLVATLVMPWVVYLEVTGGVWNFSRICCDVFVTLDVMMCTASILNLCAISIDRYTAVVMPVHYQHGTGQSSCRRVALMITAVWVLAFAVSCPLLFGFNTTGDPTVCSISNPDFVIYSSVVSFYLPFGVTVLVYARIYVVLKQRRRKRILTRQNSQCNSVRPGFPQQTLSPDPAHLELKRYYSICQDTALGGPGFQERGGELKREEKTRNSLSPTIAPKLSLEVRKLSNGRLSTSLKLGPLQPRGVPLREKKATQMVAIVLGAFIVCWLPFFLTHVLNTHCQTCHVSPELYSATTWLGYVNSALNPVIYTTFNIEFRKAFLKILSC
T2 sequence (P14416 whole entry): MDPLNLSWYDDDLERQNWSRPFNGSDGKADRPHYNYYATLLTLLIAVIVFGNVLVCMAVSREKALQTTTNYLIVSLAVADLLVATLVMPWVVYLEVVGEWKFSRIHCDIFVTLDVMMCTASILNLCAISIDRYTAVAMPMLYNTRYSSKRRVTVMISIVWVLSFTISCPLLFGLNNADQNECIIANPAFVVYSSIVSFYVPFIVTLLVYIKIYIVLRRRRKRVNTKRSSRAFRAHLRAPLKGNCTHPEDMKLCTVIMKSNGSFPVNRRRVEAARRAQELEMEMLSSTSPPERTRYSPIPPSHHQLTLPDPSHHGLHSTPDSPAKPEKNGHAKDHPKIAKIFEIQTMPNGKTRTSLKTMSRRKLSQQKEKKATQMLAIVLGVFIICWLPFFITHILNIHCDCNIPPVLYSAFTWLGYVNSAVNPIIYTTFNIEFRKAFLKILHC

Ki [1]: 0.17 nM
affinity for dopamine D2 receptor relative to D3 (times weaker) [2]: 71 times
SMILES: CS(=O)(=O)Nc1cccc(N2CCN(CCCCc3coc4cc5c(cc4c3=O)OCO5)CC2)c1 [compound according to the invention, N-(3-{4-[4-(8-oxo-8H-[1,3]dioxolo[4,5-g]chromen-7-yl)-butyl]-piperazin-1-yl}-phenyl)-methanesulfonamide hydrochloride]
effect on social interaction deficits induced by prenatal exposure to sodium valproate ([3]; 0.63 mg/kg): significantly reduced
effect on social interaction deficits induced by prenatal exposure to sodium valproate ([3]; 2.5 mg/kg): completely reversed
effect on social interaction behavior ([3]; offspring of saline-treated mothers): no significant effects
